For data set [1], the target named is T1, mouse glutathione transferase-tagged FXR-LBD (Mus musculus, UniProt Q60641).
T1 construct: mouse glutathione transferase-tagged FXR-LBD (generated in-house); made in house
T1 sequence (Q60641 264-488 limits assumed): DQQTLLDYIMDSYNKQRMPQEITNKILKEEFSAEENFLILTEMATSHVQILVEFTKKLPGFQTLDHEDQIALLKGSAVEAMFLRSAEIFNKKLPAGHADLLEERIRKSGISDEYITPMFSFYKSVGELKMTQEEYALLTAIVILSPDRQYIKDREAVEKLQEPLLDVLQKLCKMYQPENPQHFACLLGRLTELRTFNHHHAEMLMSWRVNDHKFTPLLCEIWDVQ
Kind of data set: FXR AlphaScreen coactivator recruitment assay (mouse). Type of data set: biochemical. To be noted: for EC50: read-out: (mFXR) EC50; for Emax: read-out: (mFXR) Efficacy. (Alpha assays give light when donor and acceptor beads are brought close together.)

Data set [2] addresses T2, TGR5 (Homo sapiens, UniProt Q8TDU6).
T2 sequence (Q8TDU6 1-330): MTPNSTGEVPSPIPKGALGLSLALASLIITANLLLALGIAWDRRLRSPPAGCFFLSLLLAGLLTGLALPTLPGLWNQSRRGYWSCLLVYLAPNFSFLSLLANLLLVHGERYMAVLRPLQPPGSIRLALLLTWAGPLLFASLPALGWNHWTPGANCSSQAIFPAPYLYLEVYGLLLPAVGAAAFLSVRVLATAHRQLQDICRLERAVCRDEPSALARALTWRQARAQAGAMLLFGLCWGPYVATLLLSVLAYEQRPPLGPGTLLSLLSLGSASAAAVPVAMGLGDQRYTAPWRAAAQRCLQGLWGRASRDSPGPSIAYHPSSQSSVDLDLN
In words: TGR5 activity: cAMP in hTGR5 CHO-k1 cells. Type of data set: cell-based. Also on record: expressed in transfected cells; host or cells: CHO-k1. Conditions: for Emax: 0.5 h, read-out: hTGR5 CHO Efficacy; for EC50: cAMP.

Data set [3] in a line: Water solubility. Type of data set: physicochemical. To be noted: simulated gastric fluid, thermodynamic from solid, 0.1 M HCl, pH 1.00, 25° C., read-out: Ws. The method, then: BA were suspended in 100 ml of 0.1 M HCl, pH 1.00, and the saturated solutions were transferred to a thermostat-equipped water bath maintained at 25° C. After incubation for 1 week, the solutions were filtered on a Millipore filter ([…]), and the concentration of BA was measured by HPLC-ESMS/MS as reported below.

Data set [4] can be described thus: pKa.
Data set [5] can be described thus: Critical micellar concentration (surface tension / dye solubilization). Format: physicochemical. To be noted: BA sodium salts in 0.1 M NaCl, 25° C.
For data set [6], the target named is bovine serum albumin (Bos taurus, UniProt P02769). Kind of data set: Albumin binding by equilibrium dialysis. Type of data set: in vitro ADME. Conditions: 5% bovine serum albumin saline solution, 25° C. (In general: In equilibrium dialysis only unbound substance equilibrates across the membrane.)
Sequence of bovine serum albumin (P02769 25-607): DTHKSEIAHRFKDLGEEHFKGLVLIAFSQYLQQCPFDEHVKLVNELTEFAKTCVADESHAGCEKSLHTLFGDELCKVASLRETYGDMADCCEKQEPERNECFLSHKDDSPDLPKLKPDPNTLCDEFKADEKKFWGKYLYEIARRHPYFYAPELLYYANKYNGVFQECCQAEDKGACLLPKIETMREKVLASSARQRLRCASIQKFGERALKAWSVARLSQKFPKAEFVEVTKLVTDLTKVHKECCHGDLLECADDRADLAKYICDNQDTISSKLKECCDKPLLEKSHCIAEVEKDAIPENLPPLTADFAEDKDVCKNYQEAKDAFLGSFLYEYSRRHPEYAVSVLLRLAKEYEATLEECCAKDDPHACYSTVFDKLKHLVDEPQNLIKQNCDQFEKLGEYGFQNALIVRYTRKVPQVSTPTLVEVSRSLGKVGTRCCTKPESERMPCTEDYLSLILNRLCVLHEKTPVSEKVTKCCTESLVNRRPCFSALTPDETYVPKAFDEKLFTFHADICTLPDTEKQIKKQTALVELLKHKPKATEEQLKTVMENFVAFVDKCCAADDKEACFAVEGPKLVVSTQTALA
Data set [7] deals with T3, human glutathione transferase-tagged FXR-LBD (Homo sapiens, UniProt Q96RI1).
T3 construct: human glutathione transferase-tagged FXR-LBD (Life Technologies, USA); purchased Life Technologies, USA
T3 sequence (Q96RI1 262-486 limits assumed): T1 sequence (Q60641 264-488 limits assumed) with D7H, Y8F, S46N, I50V, A95S, A98S, K107N, V125I, M174I, Y175H
Kind of data set: FXR AlphaScreen coactivator recruitment assay (human).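 For hFXR Efficacy: CDCA at 50 µM taken as 100%.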 Format: biochemical. Also noted: Emax: dose or concentration left out as unconfirmed. To be noted: for EC50: human FXR-LBD, AlphaScreen, read-out: hFXR EC50; for Emax: read-out: hFXR Efficacy.

The nature of data set [8]: Critical micellar concentration (surface tension / dye solubilization). Format: physicochemical.
Data set [9] concerns the target T4, mTGR5 (Mus musculus, UniProt Q80SS6).
T4 construct: expressed in transfected cells; host or cells: CHO-Pi10 clone 4
T4 sequence (Q80SS6 1-329): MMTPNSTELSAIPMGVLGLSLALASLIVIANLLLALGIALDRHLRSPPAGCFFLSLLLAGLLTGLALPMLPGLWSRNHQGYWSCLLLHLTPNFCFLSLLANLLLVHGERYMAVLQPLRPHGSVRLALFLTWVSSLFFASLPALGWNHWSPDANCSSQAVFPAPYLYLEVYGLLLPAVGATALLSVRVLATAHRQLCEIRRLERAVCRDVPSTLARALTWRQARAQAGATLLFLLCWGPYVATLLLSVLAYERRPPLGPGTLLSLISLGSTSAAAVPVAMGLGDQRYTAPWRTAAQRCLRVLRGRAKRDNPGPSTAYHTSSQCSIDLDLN
Kind of data set: TGR5 activity: cAMP in mTGR5 CHO-Pi10 clone 4 cells. Conditions: for Emax: 0.5 h, read-out: (mTGR5 CHO) Efficacy. Type of data set: cell-based.

Data set [10] in a line: Lipophilicity, 1-octanol/water partition coefficient (shake-flask). Type of data set: physicochemical. Conditions: pH 8.00, ionized BA. The method, then: The experiments were carried out on 1 mM initial bile salt solution buffered at pH 8.00 with 0.1 M potassium phosphate buffer to ensure complete ionization of the BA. BA concentration in the water phase before and after partition in 1-octanol was measured by HPLC-ESMS/MS as reported below.

Data set [11] deals with T2, TGR5. Kind of data set: TGR5 activity: intracellular cAMP levels, NCI-H716 cells (HTR-FRET). Type of data set: cell-based. Also noted: endogenous in cells; host or cells: NCI-H716. Conditions: for Emax: read-out: TGR5 (NCI-H716) Efficacy; for EC50: cAMP. Here is the method: Activation of TGR5 was assessed by measuring the level of cAMP using an HTR-FRET assay. Thus, NCI-H716 cells were cultured on 96-well plates coated with Matrigel (Corning, USA) (0.75 mg/ml) in DMEM supplemented with 10% FCS, 100 units/ml penicillin, and 100 μg/ml streptomycin sulphate. […] The level of intracellular cAMP was determined with Lance kit. Z′ factor was used to validate assays.

The mark [12] stands for this setting: mouse FXR-LBD, value in parentheses.
[13] abbreviates: hTGR5 CHO cells, Ref. LCA 100% at 10 μM.
[14] abbreviates: mTGR5 CHO cells, value in parentheses.
The mark [15] stands for this setting: 1 h, NCI-H716 cells, Ref. LCA 100% at 10 μM.

Data on 4 compounds can be found in US10800807B2, “TGR5 modulators and methods of use thereof” (Intercept Pharmaceuticals, Inc., priority 2015, dated 2020).

Changes are numbered by the printed parent chain. ≈ marks a conversion by molar mass, not a printed value. Where two headings read alike, the source gives them in different places.

With `CC[C@H]1[C@@H](O)C2C3CC[C@H]([C@H](C)C(F)(F)C(=O)O)[C@@]3(C)CCC2[C@@]2(C)CC[C@@H](O)C[C@@H]12` (stereo partly shown) (hydrate or solvate), the melting point is 254 to 256 °C.

`CC[C@@H]1C2C[C@H](O)CC[C@]2(C)C2CC[C@@]3(C)C(CC[C@@H]3[C@H](C)Cc3nc(=O)o[nH]3)C2[C@@H]1O` (stereo partly shown) [Compound 14]: the concentration for a half-maximal effect (EC50) in [1] (setting [12]) stood at 460 nM; in data set [2] (hTGR5 CHO cells) it was 480 ± 300 nM; in [7], 75 ± 10 nM; in [9] (setting [14]) it was 900 nM; in data set [11] (NCI-H716 cells), 1600 ± 300 nM. Besides, the Emax was found to be 264% in data set [1] (setting [12]); 107 ± 1% in data set [2] (setting [13]); 165 ± 15% in data set [7]; 111% in data set [9] (setting [14]); 110 ± 2% in data set [11] (setting [15]). In addition, the solubility thermodynamic at 1 week in data set [3] is 2020 µM (≈ 904 µg/mL). The compound further came in with a pKa in data set [4] of 5. Moreover, the CMC in [5] stood at 10 mM. Further, the “Albumin binding (%)” value in data set [6] is given as 99%. The same compound came in with a CMpH in data set [8] of 5.0. Moreover, the “LogPA−” value in [10] amounted to 1.9.

For `CC[C@H]1[C@@H](O)[C@@H]2[C@H](CC[C@]3(C)[C@@H]([C@H](C)CCc4nn[nH]n4)[C@@H](O)C[C@@H]23)[C@@]2(C)CC[C@@H](O)C[C@@H]12` [Compound 17, 3α,7α,16β-Trihydroxy-6α-ethyl-23-(tetrazol-5-yl)-24-nor-5β-cholane], the EC50 came out at 2300 nM in data set [1] (setting [12]); 100 ± 40 nM in data set [2] (hTGR5 CHO cells); 450 ± 50 nM in data set [7]; 800 nM in [9] (setting [14]); 1200 ± 100 nM in data set [11] (NCI-H716 cells). Also, the Emax in data set [1] (setting [12]) came out at 171%; in data set [2] (setting [13]) it was 103 ± 2%; in data set [7], 138 ± 9%; in data set [9] (setting [14]), 101%; in data set [11] (setting [15]), 119 ± 2%. The solubility thermodynamic at 1 week in [3] was 5 µM (≈ 2.3 µg/mL). In data set [4], this compound came in with a pKa of 5.71. Moreover, in data set [5], the CMC was 11 mM. For the same compound, the “Albumin binding (%)” value in data set [6] turned out to be 90%. The compound also returned a CMpH in [8] of 9.0. Moreover, in [10], the “LogPA−” value is listed as 2.0.

With `CC[C@H]1[C@@H](O)C2C3CC[C@H]([C@H](C)CC(=O)NCCO)[C@@]3(C)CCC2[C@@]2(C)CC[C@@H](O)C[C@@H]12` (stereo partly drawn) [Compound 19, 3α,7α-Dihydroxy-6α-ethyl-N-(2-hydroxyethyl)-24-nor-5β-cholan-23-amide], the 50% effective concentration (EC50) was 10000 nM in data set [1] (setting [12]); 20 ± 8 nM in data set [2] (hTGR5 CHO cells); 3000 ± 1000 nM in data set [7]; 80 nM in [9] (setting [14]); 160 ± 10 nM in data set [11] (NCI-H716 cells). Besides, the Emax in data set [1] is 122%; in data set [2] (CHO), 105 ± 2%; in [7], 137 ± 2%; in data set [9] (CHO) it was 106%; in [11] (NCI-H716, 1 h), 128 ± 1%. Also, in data set [3], the solubility thermodynamic at 1 week is 2150 µM (≈ 967 µg/mL). The pKa in data set [4] came to 14.3. Besides, the CMC in [5] was determined as 5 mM. Besides, the “Albumin binding (%)” value in data set [6] is 51%. Further, the CMpH in data set [8] is 1.3. Further, the “LogPA−” value in data set [10] came to 1.0.

The melting point is the temperature of the solid-liquid transition. For orientation: EC50 means the midpoint of the concentration-response curve. What is called pKa is the pH at which an ionisable group is half protonated.
